Measured values as given in patent US7074796B2 (H. Lundbeck A/S, priority 1999, dated 2006).
Structures can show the parent of a compound that is named as a salt.

| melting point [°C] | SMILES |
| --- | --- |
| 171 to 176 | Clc1cccc(N2CCN(CCCCC3CCc4ccccc43)CC2)c1Cl (centres unmarked) (as salt: oxalate) [Compound 3, 1-(2,3-Dichlorophenyl)-4-[4-(indan-1-yl)butyl]piperazine] |
| 137 to 141 | Clc1ccc2c(SCCN3CCN(c4cccc(Cl)c4Cl)CC3)c[nH]c2c1 (as salt: oxalate) [Compound 4, 6-Chloro-3-{2-[4-(2,3-dichlorophenyl)piperazin-1-yl]ethylsulfanyl}-1H-indole] |
